In patent US20140179664A1, “Heterocyclyl Pyrimidine Analogues As JAK Inhibitors” (Cellzome Limited, priority 2011, published 2014) one finds IC50 data, which are given here for 31 compounds.

Where only a bound is given, the exact number is not on record here.

The target of this assay is T1, JAK3 (Homo sapiens, UniProt P52333).
T1 construct: endogenous in cells; host or cells: Molt4 (ATCC CRL-1582) and Ramos (ATCC CRL-1596), mixed lysate 1:2
T1 sequence (P52333 1-1124): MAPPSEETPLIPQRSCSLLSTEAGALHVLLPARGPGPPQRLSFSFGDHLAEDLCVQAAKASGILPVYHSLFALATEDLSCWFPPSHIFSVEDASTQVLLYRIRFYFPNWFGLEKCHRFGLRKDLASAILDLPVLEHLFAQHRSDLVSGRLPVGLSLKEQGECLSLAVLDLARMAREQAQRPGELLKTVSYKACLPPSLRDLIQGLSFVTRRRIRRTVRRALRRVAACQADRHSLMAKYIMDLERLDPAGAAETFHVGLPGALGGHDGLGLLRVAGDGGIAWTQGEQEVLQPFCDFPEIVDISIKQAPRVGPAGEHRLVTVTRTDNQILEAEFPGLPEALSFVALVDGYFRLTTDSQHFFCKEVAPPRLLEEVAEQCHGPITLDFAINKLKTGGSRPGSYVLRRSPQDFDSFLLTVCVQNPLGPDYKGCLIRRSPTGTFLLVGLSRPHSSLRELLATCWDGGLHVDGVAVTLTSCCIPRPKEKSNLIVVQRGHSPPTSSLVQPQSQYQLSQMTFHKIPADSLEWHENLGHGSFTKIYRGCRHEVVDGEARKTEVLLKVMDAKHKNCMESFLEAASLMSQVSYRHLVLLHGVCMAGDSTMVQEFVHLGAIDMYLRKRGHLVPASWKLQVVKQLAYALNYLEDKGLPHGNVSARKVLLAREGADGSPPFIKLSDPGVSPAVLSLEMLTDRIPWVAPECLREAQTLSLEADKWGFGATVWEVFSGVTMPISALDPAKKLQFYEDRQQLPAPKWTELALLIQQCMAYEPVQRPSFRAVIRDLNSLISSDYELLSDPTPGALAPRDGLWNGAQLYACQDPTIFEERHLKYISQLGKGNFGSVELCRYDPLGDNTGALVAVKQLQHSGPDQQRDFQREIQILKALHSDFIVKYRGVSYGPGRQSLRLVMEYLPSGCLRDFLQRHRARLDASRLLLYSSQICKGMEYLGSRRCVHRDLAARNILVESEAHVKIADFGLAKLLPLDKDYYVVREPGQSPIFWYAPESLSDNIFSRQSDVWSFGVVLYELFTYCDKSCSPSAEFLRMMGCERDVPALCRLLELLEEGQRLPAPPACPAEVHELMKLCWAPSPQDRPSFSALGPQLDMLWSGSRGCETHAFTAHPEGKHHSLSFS
In words: Kinobeads assay, JAK3. It counts as binding. Conditions: mixed Molt4/Ramos lysate, read-out: Inhibition values (IC50) JAK3. The gist of the method:
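Mixed Molt4/Ramos lysate (1:2, 10 mg/mL protein) was incubated 3 h in the cold with the immobilized aminopyrido-pyrimidine affinity matrix and compound, 9-step 1:3 dilutions. Bead-bound kinases were eluted and quantified by antibody dot blot with infrared detection. IC50s are from dose-response curves.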
A word on the IC50: it is the point on the concentration scale where inhibition reaches its midpoint. Take `O=C(Cn1cc(Nc2ncc(Cl)c(N[C@H](CO)c3ccccc3)n2)cn1)NC1CC1` [Compound 68]: the IC50 was less than 100 nM. Regarding `O=C([C@@H](Nc1nc(Nc2cnn(CCO)c2)ncc1Cl)c1ccccc1)N1CCCC1` [Compound 35], the IC50 is 100 to 1000 nM. For the compound `COC(=O)C(Nc1nc(Nc2cnn(CCO)c2)ncc1Cl)c1ccccc1` (stereo not shown) [Compound 15], the IC50 fell in the range of 100 to 1000 nM. The figure for `OCCn1ccc(Nc2ncc(Cl)c(NC(CO)c3c(F)cccc3F)n2)n1` (stereo not shown) [Compound 45] is 100 to 1000 nM; for `CNC(=O)Cn1cc(Nc2ncc(Cl)c(NC(CO)c3c(F)cccc3F)n2)cn1` (stereo not shown) [Compound 31] it is less than 100 nM; for `Cc1cnc(Nc2cnn(CC(=O)N3CCOCC3)c2)nc1NC(CO)c1c(F)cccc1F` (stereo not shown) [Compound 169] it is less than 100 nM. In the case of `COc1ccccc1[C@@H](CO)Nc1nc(Nc2cnn(C)c2)ncc1Cl` [Compound 74], the 50% inhibitory concentration (IC50) was less than 100 nM. Regarding `OCCCn1cc(Nc2ncc(Cl)c(NC(CO)c3ccccc3F)n2)cn1` (stereo not shown) [Compound 64], the IC50 was less than 100 nM. As for `Cn1cc(Nc2ncc(Cl)c(NC(CO)c3cccc(F)c3)n2)cn1` (stereo not shown) [Compound 40], the half-inhibitory concentration (IC50) was less than 100 nM. The figure for `CCOC(=O)Cn1cc(Nc2ncc(Cl)c(N[C@H](CO)c3ccccc3)n2)cn1` [Compound 22] is less than 100 nM; for `CC(C)(O)Cn1cc(Nc2ncc(Cl)c(NC(CO)c3ccccc3F)n2)cn1` (stereo not shown) [Compound 57] it is less than 100 nM. The figure for `Cn1cc(Nc2ncc(Cl)c(N[C@H](CO)c3ccccc3F)n2)cn1` [Compound 58] is less than 100 nM; for `Cn1cc(Nc2ncc(Cl)c(N[C@@H](CO)c3ccccc3)n2)cn1` [Compound 54] it is 1000 to 10000 nM.

Regarding `COC[C@@H](Nc1nc(Nc2cnn(C)c2)ncc1Cl)c1ccccc1` [Compound 55], the IC50 was 100 to 1000 nM. The figure for `Cn1cc(Nc2ncc(Cl)c(NC(CO)c3ccc(F)cc3)n2)cn1` (stereo not shown) [Compound 71] is 100 to 1000 nM; for `CC(C)(C(N)=O)n1cc(Nc2ncc(Cl)c(N[C@H](CO)c3ccccc3F)n2)cn1` [Compound 73] it is less than 100 nM. As for `OCCn1cc(Nc2ncc(Cl)c(NC(CO)c3ccc(F)cc3)n2)cn1` (stereo not shown) [Compound 72], the 50% inhibitory concentration (IC50) lay in the range of 100 to 1000 nM.

Regarding `CN(C)C(=O)[C@@H](Nc1nc(Nc2cnn(CCO)c2)ncc1Cl)c1ccccc1` [Compound 26], the IC50 was less than 100 nM. In the case of `Cc1cnc(Nc2cnn(CC(F)F)c2)nc1N[C@H](CO)c1cc(F)cc(F)c1` [Compound 167], the IC50 lay in the range of 100 to 1000 nM. Turning to `COc1ccccc1[C@@H](CO)Nc1nc(Nc2cnn(CCO)c2)ncc1Cl` [Compound 76], the IC50 was less than 100 nM. `Cn1cc(Nc2ncc(Cl)c(N[C@H](C(=O)NC3CCCC3)c3ccccc3)n2)cn1` [Compound 59]: the IC50 lay within 100 to 1000 nM. With `Cn1cc(Nc2ncc(Cl)c(N[C@H](C(=O)N3CCCCC3)c3ccccc3)n2)cn1` [Compound 49], the half-maximal inhibitory concentration (IC50) lay within 100 to 1000 nM. Take `Cn1cc(Nc2ncc(Cl)c(N[C@H](C(=O)NCCO)c3ccccc3)n2)cn1` [Compound 46]: the IC50 is less than 100 nM.

In the case of `NC(=O)Cn1cc(Nc2ncc(Cl)c(N[C@H](CO)c3ccccn3)n2)cn1` [Compound 81], the IC50 was less than 100 nM.

Turning to `OCCn1cc(Nc2ncc(Cl)c(NC(CO)Cc3ccccc3)n2)cn1` (stereo not shown) [Compound 19], the IC50 was less than 100 nM.

Consider `OC[C@@H](Nc1nc(Nc2cn[nH]c2)ncc1Cl)c1ccccc1` [Compound 75], for which the half-maximal inhibitory concentration (IC50) was less than 100 nM.

On to `Cn1cc(Nc2ncc(Cl)c(N[C@H](C(=O)N3CCCC3)c3ccccc3)n2)cn1` [Compound 34], for which the IC50 is 100 to 1000 nM. `OCCn1cc(Nc2ncc(Cl)c(NC(CO)c3c(F)cccc3F)n2)cn1` (stereo not shown) [Compound 43]: the 50% inhibitory concentration (IC50) was less than 100 nM. As for `OCCn1ccc(Nc2ncc(Cl)c(NC(CO)c3cccc(F)c3)n2)n1` (stereo not shown) [Compound 41], the half-maximal inhibitory concentration (IC50) fell in the range of 100 to 1000 nM. In the case of `Cn1cc(Nc2ncc(Cl)c(NC(CO)c3c(F)cccc3F)n2)cn1` (stereo not shown) [Compound 44], the IC50 was less than 100 nM. With `O=C(O)C(Nc1nc(Nc2cnn(CCO)c2)ncc1Cl)c1ccccc1` (stereo not shown) [Compound 17], the IC50 is 100 to 1000 nM.
